In article PMC6906431, “Selective small molecule PARG inhibitor causes replication fork stalling and cancer cell death” (Nature Communications, 2019):
Values joined by “and” are separate entries in the source; they are usually repeats but may differ in a detail not shown here. Equal entries are not always repeated.

Tests used:
PC3 cells = assay: Immunoblot of HMW/LMW PARP1 in chromatin fractions; type: cell-based, human; details: normalized to DMSO = 1, IR 7 Gy, replicates
Method: To identify suitable cell lines to test PARGi, we evaluated PARG protein expression patterns on a panel of prototypic cancer cell lines. Cells were fractionated into cytoplasmic, nuclear and chromatin, and then PARG expression and localization were evaluated using an anti-PARG antibody (Fig. 4a). A varying level of PARG was detected in three cellular compartments. In prostate adenocarcinoma (PC3) and breast mammary epithelial (MCF-7) cells, PARG level was the highest in the cytoplasm, followed by the nucleus, with the lowest seen in the chromatin fraction. […] The PC3 cell line, with one of the highest levels of PARG expression, was selected for our initial PARGi testing. PC3 cells were treated with either DMSO or JA2131 for 2 h, then exposed to 7 Gy of IR and allowed to recover for a designated time period before harvesting and cell fractionation. Chromatin fractions of the cell lysates were analyzed by immunoblotting with PARP1 specific antibody (Fig. 4b), and the PARylation states of PARP1 were monitored as a marker for PARG inhibition. […] In these cells, PARylated PARP1 in response to PARG inhibition appeared as a discrete HMW (DHMW) proteins with limited smearing, as observed previously. […] To assess whether DHMW was due to PARylation and not any other post-translational modifications, chromatin fractions of the PARGi-treated PC3 cell-lysates were treated with purified PARG, followed by anti-PARP1 western blotting. This led to the restoration of LMW PARP1, indicating PARylation was indeed causing the DHMW (Fig. 4c, d). Thus, a dynamic equilibrium between DHMW and LMW nuclear PARP1 exists in cells, and PARGi shifts this equilibrium towards DHMW.
Fig. 4 JA2131 induces hyperPARylation of PARP1. a Subcellular PARG protein expression patterns in cultured cells. […] Chromatin bound cell-extracts were analyzed with anti-PARP1 antibody (upper panel) followed by probing with total Histone H2AX (t-H2AX, lower panel) as the loading control. c DMSO or 2131-treated PC3 cells were irradiated and recovered for 2 h as above, chromatin fractions were then incubated with or without purified PARG enzyme (±PARG) for 30 min at 37 °C then immunoblotted with anti-PARP1 (upper panel) and then with anti-histone H3 (lower panel) as loading control. d Quantitative analysis of western blot of b, where expression of PARP1 levels in DMSO treated was normalized to 1. […]

HeLa cells = assay: DNA fiber assay, replication fork progression; type: cell-based, human; details: JA2131 10 µM
From the text: Normalized % viabilities are plotted against log concentration. Error bars show the percent coefficient of variation. […] Mann-Whitney test was used to generate the p-value. The DNA spread assay is the representation of two independently repeated experiments. Source Data are provided as a Source Data file.

[1] = chromatin fraction incubated with purified PARG (+)

**Q.** What does the source list for `Cn1c(=S)c2[nH]c(SCCN3CCOCC3)nc2n(C)c1=O` [JA2131]?
**A.** HMW PARP1 (PC3 cells; [1]): 0.2746 and 0.8185 and 0.3259; LMW PARP1 (PC3 cells; [1]): 1.147 and 1.092 (2×); HMW PARP1 (PC3 cells; without added purified PARG): 0.6751 and 1.387 and 4.419; LMW PARP1 (PC3 cells; without added purified PARG): 0.7041 and 0.9592 (2×); average IdU tract (HeLa cells; 2 h pretreatment, no genotoxic stress): 6.0 μm; average IdU tract length (HeLa cells; low-dose hydroxyurea): 5.0 μm
